Data: PubChem BioAssay AID1963430 (Molecular Pharmacology Branch, DTP, NCI, 2024)
Values joined by “and” are separate entries in the source; they are usually repeats but may differ in a detail not shown here. Equal values may be shown once.

System: 521955-158-R2-J5-PDC complex spheroid growth, % test/control
Experiment: Anticancer human tumor 521955-158-R2-J5-PDC patient-derived pancreatic carcinoma cell line growth inhibition [Asc]
Conditions: for viability, T/C: stronger effect = lower value
Description: Multicellular complex tumor spheroid response to apoptosis pathway targeting inhibitors Alrizomadlin, Pelcitoclax, and Dasminapant in combination with a variety of drugs and investigational agents in selected tumor cell lines
The MDM2 inhibitor alrizomadlin, the Bcl-2/Bcl-xL inhibitor pelcitoclax, and the IAPs inhibitor dasminapant were evaluated both individually and in combination with standard of care and investigational anticancer small molecules within a complex spheroid model of solid tumors. . Complex spheroids include a stromal component modeled by human endothelial cells (HUVEC) and fibroblasts modeled by human mesenchymal stem cells (MSCs). The concentration ranges selected for each drug and investigational agent were based upon clinically achievable concentrations if the clinical Cmax of the agent was known.
Compounds. The drugs and investigational agents: alrizomadlin (APG-115; NSC831270), pelcitoclax (APG-1252; NSC835773), dasminapant (APG-1387;NSC834197), TAK-243 (NSC785004), copanlisib (NSC809693), olaparib (NSC753686), talazoparib (NSC767125), cobimetinib (NSC 768068), eltanexor (KPT-8602, NSC 794443), abemaciclib (NSC 768073), sotorasib (NSC818433), adagrasib (NSC 831453), MRTX-1133 (NSC 836407), Iadademestat (ORY1001, NSC 806812), and RMC-4630 (NSC839698), were obtained from the NCI Developmental Therapeutics Program Chemical Repository. The FDA-approved anticancer drug set is available from the Developmental Therapeutics Program at https://dtp.cancer.gov/organization/dscb/obtaining/available plates.htm. […] The stock solutions were prepared in dimethyl sulfoxide (DMSO, Sigma-Aldrich, St. Louis, MO, cat. D2650) at 800-fold the tested concentration and stored at -70 degrees C prior to their use. All drugs and investigational agents were tested over a range starting from a high concentration at or near the clinical Cmax and decreasing in half-log increments. If the clinical Cmax for an agent had not been determined, the highest concentration tested was 10 microM.
The patient-derived cancer (PDC) cell lines include five colon adenocarcinomas: 186277-243-T-J2-PDC, 616215-338-R-J1-PDC, 439559-082-T-J2-PDC, 463943-066-T-J2-PDC, and 519858-162-T-J1-PDC; three pancreatic carcinomas: 323965-272-R-J2-PDC, 521955-158-R6-J3-PDC, and 521955-158-R2-J5-PDC; two uterine sarcomas: 327498-152-R-J2-PDC and 993429-296-R-J1-PDC; two rhabdomyosarcomas: 755483-174-R-J1-PDC and 772245-204-R-J1-PDC; two soft tissue sarcomas: 126254-015-R-J1-PDC and 494315-158-R-J1-PDC; two malignant fibrous histiocytomas: 317291-083-R-J1-PDC and 596521-263-R-J1-PDC; two breast carcinomas: 171881-019-R-J1-PDC and 885512-296-R-J2-PDC; and one ovarian carcinoma: 6556581-035-R-J-PDC were obtained from the NCI PDMR, (https://pdmr.cancer.gov). The established cell lines HSSY-2 synovial sarcoma (RRID:CVCL 8719), SYO-1 synovial sarcoma (RRID:CVCL_7146), MPNST malignant peripheral neural sheath tumor were obtained from the Sloan Kettering Institute. The following established cell lines were purchased from the American Type Culture Collection (ATCC, Manassas, VA), Sor the received from the NCI repository:, PANC-1 pancreatic carcinoma (CRL-1469, RRID:CVCL_0480), OVCAR-5 ovarian carcinoma (RRID:CVCL_1628), OVCAR-8 ovarian carcinoma (RRID:CVCL_1629), , MCF-7 breast carcinoma (CRL-12584, RRID:CVCL_0031), MDA-MB-231 breast carcinoma (CRL-12532, RRID:CVCL_0062), NCI-H1876 small cell lung carcinoma (CRL-5902, RRID:CVCL_1503), NCI-H510A small cell lung carcinoma (HTB-184, RRID:CVCL_1565), NCI-H1417 (CRL-5869, RRID:CVCL_1469), and NCI-H196 small cell lung carcinoma (CRL-5823, RRID:CVCL_1509). Dr. Peter Houghton (Greehey Children's Cancer Research Institute, University of Texas Health Science Center, San Antonio, TX) provided Rh-18 rhabdomyosarcoma (RRID:CVCL_1659). Pooled donor human umbilical vein endothelial cells (HUVEC, Lonza, cat. CC-2519) and human mesenchymal stem cells (hMSC, Lonza, cat. PT-2501) were purchased from Lonza (Walkersville, MD).
Cell Culture. […]
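Also: spheroids exposed to agents for 7 days before readout.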
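For viability, T/C in this document: 100% = DMSO vehicle control viability.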

For `NC1CCC(NC2CC2c2ccccc2)CC1` (stereo unspecified), the viability, T/C (compound 0.000316 µM) was 63.1% and 63.5% and 88.5%, the viability, T/C (compound 0.001 µM) was 57% and 64.8% and 83.1% and the viability, T/C (compound 0.00316 µM) was 52.8% and 60% and 75.8%. For the same compound, the viability, T/C (compound 0.01 µM) was 68.5% and 49.6% and 95%, the viability, T/C (compound 0.0316 µM) was 58.5% and 56.5% and 90.8% and the viability, T/C (compound 0.1 µM) was 60% and 61.9% and 74%. For the same compound, the IC50 (curve of compound) was > 100 nM.

For `O=C(c1cc(Cc2n[nH]c(=O)c3ccccc23)ccc1F)N1CCN(C(=O)C2CC2)CC1`, the viability, T/C (compound 0.0316 µM) was 80.7% and 80% and 97.9%, the viability, T/C (compound 0.1 µM) was 79.6% and 89.4% and 92.2% and the viability, T/C (compound 0.316 µM) was 71.8% and 89.7% and 84.1%. For the same compound, the viability, T/C (compound 1 µM) was 62.2% and 88.6% and 85.9%, the viability, T/C (compound 3.16 µM) was 76.3% and 93.4% and 74.3% and the viability, T/C (compound 10 µM) was 60.8% and 63.9% and 61.5%. For the same compound, the IC50 (curve of compound) was > 10000 nM.

With `O=C(c1ccc(F)c(F)c1Nc1ccc(I)cc1F)N1CC(O)([C@@H]2CCCCN2)C1` the viability, T/C (compound 0.00316 µM) was 73.4% and 81.6% and 64.9%, the viability, T/C (compound 0.01 µM) was 73.2% and 72.4% and 79.1% and the viability, T/C (compound 0.0316 µM) was 61.1% and 71.3% and 49.6%. The viability, T/C (compound 0.1 µM) was 47.8% and 51.4% and 31%, the viability, T/C (compound 0.316 µM) was 41.1% and 47.1% and 32.3% and the viability, T/C (compound 1 µM) was 33.1% and 31.4% and 26%. For the same compound, the IC50 (curve of compound) was 90.2 nM and 184 nM and 30.9 nM.

For `O=C(c1cc(Cc2n[nH]c(=O)c3ccccc23)ccc1F)N1CCN(C(=O)C2CC2)CC1` + CCN1C(C(=O)NC23CCC(C(=O)O)(CC2)CC3)C(c2cccc(Cl)c2F)C2(C(=O)Nc3cc(Cl)ccc32)C12CCCCC2, the IC50 (curve of first compound, second compound 0.03 µM) was > 10000 nM, the IC50 (curve of first compound, second compound 0.0949 µM) was > 10000 nM and the IC50 (curve of first compound, second compound 0.3 µM) was > 10000 nM. The IC50 (curve of first compound, second compound 0.949 µM) was > 10000 nM, the IC50 (curve of first compound, second compound 3 µM) was > 10000 nM and the viability, T/C (second compound 0.03 µM, first compound 0.0316 µM) was 101%. The viability, T/C (second compound 0.03 µM, first compound 0.1 µM) was 113%, the viability, T/C (second compound 0.03 µM, first compound 0.316 µM) was 68.7% and the viability, T/C (second compound 0.03 µM, first compound 1 µM) was 91.9%. The viability, T/C (second compound 0.03 µM, first compound 3.16 µM) was 86.1%, the viability, T/C (second compound 0.03 µM, first compound 10 µM) was 63% and the viability, T/C (second compound 0.0949 µM, first compound 0.0316 µM) was 114%. It also gave a viability, T/C (second compound 0.0949 µM, first compound 0.1 µM) of 102%, a viability, T/C (second compound 0.0949 µM, first compound 0.316 µM) of 99% and a viability, T/C (second compound 0.0949 µM, first compound 1 µM) of 73.2%. For the same compound, the viability, T/C (second compound 0.0949 µM, first compound 3.16 µM) was 74.2%, the viability, T/C (second compound 0.0949 µM, first compound 10 µM) was 74.5% and the viability, T/C (second compound 0.3 µM, first compound 0.0316 µM) was 96.9%. It also gave a viability, T/C (second compound 0.3 µM, first compound 0.1 µM) of 131%, a viability, T/C (second compound 0.3 µM, first compound 0.316 µM) of 104% and a viability, T/C (second compound 0.3 µM, first compound 1 µM) of 87.2%. The viability, T/C (second compound 0.3 µM, first compound 3.16 µM) was 75.2%, the viability, T/C (second compound 0.3 µM, first compound 10 µM) was 66.8% and the viability, T/C (second compound 0.949 µM, first compound 0.0316 µM) was 123%. The viability, T/C (second compound 0.949 µM, first compound 0.1 µM) was 124%, the viability, T/C (second compound 0.949 µM, first compound 0.316 µM) was 113% and the viability, T/C (second compound 0.949 µM, first compound 1 µM) was 113%. For the same compound, the viability, T/C (second compound 0.949 µM, first compound 3.16 µM) was 93.3%, the viability, T/C (second compound 0.949 µM, first compound 10 µM) was 88.8% and the viability, T/C (second compound 3 µM, first compound 0.0316 µM) was 109%. For the same compound, the viability, T/C (second compound 3 µM, first compound 0.1 µM) was 137%, the viability, T/C (second compound 3 µM, first compound 0.316 µM) was 135% and the viability, T/C (second compound 3 µM, first compound 1 µM) was 126%. The viability, T/C (second compound 3 µM, first compound 3.16 µM) was 106% and the viability, T/C (second compound 3 µM, first compound 10 µM) was 98%.
